Assay results from US12528814B2, “Bifunctional degraders of interleukin-1 receptor-associated kinases and therapeutic use thereof” (NURIX THERAPEUTICS, INC., priority 2020, dated 2026).
Read-outs that look alike come from different tables or passages of the source.

Columns and labels:
[1] = biological target: T1, IRAK4 (Homo sapiens (Human), UniProt Q9NWZ3); experiment: IRAK4 Biochemical HTRF Kinase Assay; settings: read-out: IRAK4 HTRF biochemical: IC50
How it was run: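 IC50 values derive from non-linear regression of sixteen concentrations in duplicate. Kinase reaction ran 90 min at ambient temperature after adding 5 μM STK-S1 substrate, 10 mM ATP and 10 mM MgCl2 (reaction-solution levels, pre-dilution to 10 μl); phospho-peptide detected by HTRF after 60 min.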
Target sequence in this assay (Q9NWZ3 whole entry, species assumed): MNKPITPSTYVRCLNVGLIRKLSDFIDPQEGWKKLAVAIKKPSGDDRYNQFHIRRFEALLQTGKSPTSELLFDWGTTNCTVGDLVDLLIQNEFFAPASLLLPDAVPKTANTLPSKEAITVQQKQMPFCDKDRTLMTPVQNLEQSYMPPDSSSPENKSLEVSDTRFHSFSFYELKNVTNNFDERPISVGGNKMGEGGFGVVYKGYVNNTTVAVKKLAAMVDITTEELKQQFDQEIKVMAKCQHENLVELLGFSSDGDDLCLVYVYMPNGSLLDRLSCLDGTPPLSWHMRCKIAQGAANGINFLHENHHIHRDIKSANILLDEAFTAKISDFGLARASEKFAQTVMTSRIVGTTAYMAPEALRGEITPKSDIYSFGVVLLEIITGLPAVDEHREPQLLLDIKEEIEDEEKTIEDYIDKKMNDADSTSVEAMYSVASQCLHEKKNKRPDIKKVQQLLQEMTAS

[2] = biological target: T1, IRAK4; experiment: IRAK4 Degradation HiBiT Assay; settings: HiBiT-tagged Jurkat cells, 4 hrs; for Dmax: Jurkat; for DC50: read-out: Cellular IRAK4 HiBiT: DC50
Target sequence in this assay (Q9NWZ3 whole entry): as the sequence (Q9NWZ3 whole entry, species assumed) above

[3] = read-out: Cellular IRAK4 HiBiT: Dmax, Table 4
[4] = read-out: Cellular IRAK4 HiBiT: Dmax, Table 5, multiple runs

Structure (SMILES)	IC50 ([1]; Table 4)	IC50 ([1]; Table 5, multiple runs)	Dmax [2, 3]	Dmax [2, 4]	DC50 ([2]; Table 4)	DC50 ([2]; Table 5, multiple runs)
Cc1ncsc1-c1ccc([C@H](C)NC(=O)[C@@H]2C[C@@H](O)CN2C(=O)[C@@H](NC(=O)CCC(=O)N2CCN(c3nnc(-c4cnc(-c5ccc6cc(C#N)cnn56)cc4NC(C)C)s3)CC2)C(C)(C)C)cc1 [Example 40, (2S,4R)-1-((S)-2-(4-(4-(5-(6-(3-cyanopyrrolo[1,2-b]pyridazin-7-yl)-4-(isopropylamino)pyridin-3-yl)-1,3,4-thiadiazol-2-yl)piperazin-1-yl)-4-oxobutanamido)-3,3-dimethylbutanoyl)-4-hydroxy-N—((S)-1-(4-(4-methylthiazol-5-yl)phenyl)ethyl)pyrrolidine-2-carboxamide]	3.6 nM	3.6 nM	53%	53%	420 nM	419 nM
CNc1cc(-c2ccc3cc(C#N)cnn23)ncc1-c1nnc([C@H]2CC[C@H](NC(=O)[C@H]3CC[C@H]3C(=O)N[C@H](C(=O)N3C[C@H](O)C[C@H]3C(=O)N[C@@H](C)c3ccc(-c4scnc4C)cc3)C(C)(C)C)CC2)s1 (racemic) [Example 143, (1RS,2SR)—N1-((1r,4R)-4-(5-(6-(3-cyanopyrrolo[1,2-b]pyridazin-7-yl)-4-(methylamino)pyridin-3-yl)-1,3,4-thiadiazol-2-yl)cyclohexyl)-N2—((S)-1-((2S,4R)-4-hydroxy-2-(((S)-1-(4-(4-methylthiazol-5-yl)phenyl)ethyl)carbamoyl)pyrrolidin-1-yl)-3,3-dimethyl-1-oxobutan-2-yl)cyclobutane-1,2-dicarboxamide]		1.6 nM		37%		870 nM
CNc1cc(-c2ccc3cc(C#N)cnn23)ncc1-c1nnc([C@H]2CC[C@H](N(C)CC3CCN(c4ccc(C(=O)NC5CCC(=O)NC5=O)nc4)CC3)CC2)s1 (stereo partly drawn) [Example 167, 5-(4-((((1r,4r)-4-(5-(6-(3-cyanopyrrolo[1,2-b]pyridazin-7-yl)-4-(methylamino)pyridin-3-yl)-1,3,4-thiadiazol-2-yl)cyclohexyl)(methyl)amino)methyl)piperidin-1-yl)-N-(2,6-dioxopiperidin-3-yl)picolinamide]		0.5 nM		107%		20.1 nM
Cc1ncsc1-c1ccc([C@H](C)NC(=O)[C@@H]2C[C@@H](O)CN2C(=O)[C@@H](NC(=O)CCOCCOCCOCCC(=O)N2CCN(c3nnc(-c4cnc(-c5ccc6cc(C#N)cnn56)cc4NC(C)C)s3)CC2)C(C)(C)C)cc1 [Example 78, (2S,4R)-1-((S)-2-(tert-butyl)-16-(4-(5-(6-(3-cyanopyrrolo[1,2-b]pyridazin-7-yl)-4-(isopropylamino)pyridin-3-yl)-1,3,4-thiadiazol-2-yl)piperazin-1-yl)-4,16-dioxo-7,10,13-trioxa-3-azahexadecanoyl)-4-hydroxy-N—((S)-1-(4-(4-methylthiazol-5-yl)phenyl)ethyl)pyrrolidine-2-carboxamide]		2.4 nM		74%		332 nM
CNc1cc(-c2ccc3cc(C#N)cnn23)ncc1-c1nnc([C@H]2CC[C@@H](NC(=O)CN3CCC4(CC3)CN(c3ccc5c(c3)C(=O)N(C3CCC(=O)NC3=O)C5=O)C4)CC2)s1 (stereo partly drawn) [Example 127, N-((1s,4s)-4-(5-(6-(3-cyanopyrrolo[1,2-b]pyridazin-7-yl)-4-(methylamino)pyridin-3-yl)-1,3,4-thiadiazol-2-yl)cyclohexyl)-2-(2-(2-(2,6-dioxopiperidin-3-yl)-1,3-dioxoisoindolin-5-yl)-2,7-diazaspiro[3.5]nonan-7-yl)acetamide]		0.8 nM		58%		187 nM
CNc1cc(-c2ccc3cc(C#N)cnn23)ncc1-c1nnc(C23CCC(NC(=O)CCCCCC(=O)N[C@H](C(=O)N4C[C@H](O)C[C@H]4C(=O)N[C@@H](C)c4ccc(-c5scnc5C)cc4)C(C)(C)C)(CC2)CC3)s1 [Example 131, N1-(4-(5-(6-(3-cyanopyrrolo[1,2-b]pyridazin-7-yl)-4-(methylamino)pyridin-3-yl)-1,3,4-thiadiazol-2-yl)bicyclo[2.2.2]octan-1-yl)-N7-((S)-1-((2S,4R)-4-hydroxy-2-(((S)-1-(4-(4-methylthiazol-5-yl)phenyl)ethyl)carbamoyl)pyrrolidin-1-yl)-3,3-dimethyl-1-oxobutan-2-yl)heptanediamide]		2.1 nM		109%		124 nM
CNc1cc(-c2ccc3cc(C#N)cnn23)ncc1-c1nnc([C@H]2CC[C@@H](NC(=O)CCC(=O)N[C@H](C(=O)N3C[C@H](O)C[C@H]3C(=O)N[C@@H](C)c3ccc(-c4scnc4C)cc3)C(C)(C)C)CC2)s1 [Example 121, N1-((1s,4R)-4-(5-(6-(3-cyanopyrrolo[1,2-b]pyridazin-7-yl)-4-(methylamino)pyridin-3-yl)-1,3,4-thiadiazol-2-yl)cyclohexyl)-N4—((S)-1-((2S,4R)-4-hydroxy-2-(((S)-1-(4-(4-methylthiazol-5-yl)phenyl)ethyl)carbamoyl)pyrrolidin-1-yl)-3,3-dimethyl-1-oxobutan-2-yl)succinamide]		1.2 nM		95%		1080 nM
CNc1cc(-c2ccc3cc(C#N)cnn23)ncc1-c1nnc(N2CC3(CCN(CC4CCN(c5ccc(C(=O)NC6CCC(=O)NC6=O)cc5)CC4)CC3)C2)s1 (stereo not drawn) [Example 182, 4-(4-((2-(5-(6-(3-cyanopyrrolo[1,2-b]pyridazin-7-yl)-4-(methylamino)pyridin-3-yl)-1,3,4-thiadiazol-2-yl)-2,7-diazaspiro[3.5]nonan-7-yl)methyl)piperidin-1-yl)-N-(2,6-dioxopiperidin-3-yl)benzamide]		0.5 nM		120%		159 nM

The next lines start with the values.

IC50 ([1]; Table 4)	IC50 ([1]; Table 5, multiple runs)	Dmax [2, 3]	Dmax [2, 4]	DC50 ([2]; Table 4)	DC50 ([2]; Table 5, multiple runs)	Structure (SMILES)
2 nM	2 nM	29%	29%	654 nM	660 nM	CC(C)Nc1cc(-c2ccc3cc(C#N)cnn23)ncc1-c1nnc(N2CCN(Cc3ccc4c(c3)C(=O)N(C3CCC(=O)NC3=O)C4=O)CC2)s1 (stereo not drawn) [Example 20, 7-(5-(5-(4-((2-(2,6-dioxopiperidin-3-yl)-1,3-dioxoisoindolin-5-yl)methyl)piperazin-1-yl)-1,3,4-thiadiazol-2-yl)-4-(isopropylamino)pyridin-2-yl)pyrrolo[1,2-b]pyridazine-3-carbonitrile]
1 nM	1 nM	103%	103%	49.1 nM	49.1 nM	CC(C)Nc1cc(-c2ccc3cc(C#N)cnn23)ncc1-c1nnc(N2CCN(C(=O)CCOCCNc3ccc4c(c3)C(=O)N(C3CCC(=O)NC3=O)C4=O)CC2)s1 (stereo not drawn) [Example 10, 7-(5-(5-(4-(3-(2-((2-(2,6-dioxopiperidin-3-yl)-1,3-dioxoisoindolin-5-yl)amino)ethoxy)propanoyl)piperazin-1-yl)-1,3,4-thiadiazol-2-yl)-4-(isopropylamino)pyridin-2-yl)pyrrolo[1,2-b]pyridazine-3-carbonitrile]
	10.2 nM		57%		171 nM	CNc1cc(-c2ccc3cc(C#N)cnn23)ncc1-c1nnc([C@H]2CC[C@@H](NC(=O)CCCCCCCNc3ccc4c(c3)C(=O)N(C3CCC(=O)NC3=O)C4=O)CC2)s1 (stereo partly drawn) [Example 112, N-((1s,4s)-4-(5-(6-(3-cyanopyrrolo[1,2-b]pyridazin-7-yl)-4-(methylamino)pyridin-3-yl)-1,3,4-thiadiazol-2-yl)cyclohexyl)-8-((2-(2,6-dioxopiperidin-3-yl)-1,3-dioxoisoindolin-5-yl)amino)octanamide]
2.6 nM	2.6 nM	82%	69%	74.6 nM	70 nM	CC(C)Nc1cc(-c2ccc3cc(C#N)cnn23)ncc1-c1nnc(N2CCN(C(=O)CCCCCNc3ccc4c(c3)C(=O)N(C3CCC(=O)NC3=O)C4=O)CC2)s1 (stereo not drawn) [Example 6, 7-(5-(5-(4-(6-((2-(2,6-dioxopiperidin-3-yl)-1,3-dioxoisoindolin-5-yl)amino)hexanoyl)piperazin-1-yl)-1,3,4-thiadiazol-2-yl)-4-(isopropylamino)pyridin-2-yl)pyrrolo[1,2-b]pyridazine-3-carbonitrile]
	0.8 nM		108%		9.74 nM	CNc1cc(-c2ccc3cc(C#N)cnn23)ncc1-c1nnc(N2CCC(NC(=O)CN3CCN(c4ccc5c(c4)C(=O)N(C4CCC(=O)NC4=O)C5=O)CC3)CC2)s1 (stereo not drawn) [Example 95, N-(1-(5-(6-(3-cyanopyrrolo[1,2-b]pyridazin-7-yl)-4-(methylamino)pyridin-3-yl)-1,3,4-thiadiazol-2-yl)piperidin-4-yl)-2-(4-(2-(2,6-dioxopiperidin-3-yl)-1,3-dioxoisoindolin-5-yl)piperazin-1-yl)acetamide]
1.8 nM	1.7 nM	97%	98%	51.8 nM	52.5 nM	CC(C)Nc1cc(-c2ccc3cc(C#N)cnn23)ncc1-c1nnc([C@H]2CC[C@H](NC(=O)CCOCCOCCOCCNc3cccc4c3C(=O)N(C3CCC(=O)NC3=O)C4=O)CC2)s1 (stereo partly drawn) [Example 4, N-((1r,4r)-4-(5-(6-(3-cyanopyrrolo[1,2-b]pyridazin-7-yl)-4-(isopropylamino)pyridin-3-yl)-1,3,4-thiadiazol-2-yl)cyclohexyl)-3-(2-(2-(2-((2-(2,6-dioxopiperidin-3-yl)-1,3-dioxoisoindolin-4-yl)amino)ethoxy)ethoxy)ethoxy)propanamide]
